# Patent US20220315621A1, “COMPOSITIONS AND METHODS FOR TREATING CNS DISORDERS” (priority 2017, published 2022)
# Molecular target: GABAA receptor (rat brain cortical membranes, [35S]-TBPS binding)
# Conditions: not given
row,Compound,IC50 [nM]
1,"CCOC[C@@]1(O)CC[C@H]2[C@@H](CC[C@@H]3[C@@H]2CC[C@]2(C)[C@@H](C(=O)Nc4ccccc4)CCC[C@@H]32)C1 [I-B11, (1S,4aS,4bR,6aS,8R,10aS,10bR,12aS)-8-(ethoxymethyl)-8-hydroxy-12a-methyl-N-phenyloctadecahydrochrysene-1-carboxamide]",10 to 100

# Same assay, conditions: Table I-4; rat brain cortical membranes, 3 nM [35S]-TBPS, in the presence of 5 mM GABA
row,Compound,IC50 [nM]
1,"C[C@@]1(O)CC[C@H]2[C@H](CC[C@@H]3[C@@H]2CC[C@]2(C)[C@@H](CO)CCC[C@@H]32)C1 [I-A3, (2R,4aS,4bR,6aS,7S,10aS,10bR,12aR)-7-(hydroxymethyl)-2,6a-dimethyloctadecahydrochrysen-2-ol]",100 to 1000
2,"CN(C[C@H]1CCC[C@H]2[C@@H]3CC[C@@H]4C[C@](C)(O)CC[C@@H]4[C@H]3CC[C@]12C)S(=O)(=O)c1ccccc1 [I-A8, N-(((1S,4aS,4bR,6aR,8R,10aS,10bR,12aS)-8-hydroxy-8,12a-dimethyloctadecahydrochrysen-l-yl)methyl)-N-methylbenzenesulfonamide]",10 to 100

# Same assay, conditions: Table I-5; rat brain cortical membranes, 3 nM [35S]-TBPS, in the presence of 5 mM GABA
row,Compound,IC50 [nM]
1,"C[C@@]1(O)CC[C@@]2(C)[C@H](CC[C@@H]3[C@@H]2CC[C@]2(C)[C@@H](C(=O)Cn4cc(C#N)cn4)C[C@@H]32)C1 [Compound I-106, 1-(2-((1S,2aS,2bR,4aR,6R,8aS,8bS,10aS)-6-hydroxy-6,8a,10a-trimethylhexadecahydrocyclobuta[a]phenanthren-1-yl)-2-oxoethyl)-1H-pyrazole-4-carbonitrile]",100 to 1000
2,"C[C@@]1(O)CC[C@@]2(C)[C@H](CC[C@@H]3[C@@H]2CC[C@]2(C)[C@@H](C(=O)Cn4nccn4)C[C@@H]32)C1 [Compound I-107, 1-((1S,2aS,2bR,4aR,6R,8aS,8bS,10aS)-6-hydroxy-6,8a,10a-trimethylhexadecahydrocyclobuta[a]phenanthren-1-yl)-2-(2H-1,2,3-triazol-2-yl)ethan-1-one]",1000 to 10000
3,"C[C@@]1(O)CC[C@@]2(C)[C@H](CC[C@@H]3[C@@H]2CC[C@]2(C)[C@@H](C(=O)Cn4ccnn4)C[C@@H]32)C1 [Compound I-107a, 1-((1S,2aS,2bR,4aR,6R,8aS,8bS,10aS)-6-hydroxy-6,8a,10a-trimethylhexadecahydrocyclobuta[a]phenanthren-1-yl)-2-(1H-1,2,3-triazol-1-yl)ethan-1-one]",1000 to 10000
4,"COC[C@H]1C[C@H]2[C@@H]3CC[C@@H]4C[C@](C)(O)CC[C@@H]4[C@H]3CC[C@]12C [Compound I-117, (1S,2aS,2bR,4aR,6R,8aS,8bR,10aS)-1-(methoxymethyl)-6,10a-dimethylhexadecahydrocyclobuta[a]phenanthren-6-ol]",100 to 1000
5,"COC[C@@H]1C[C@H]2[C@@H]3CC[C@@H]4C[C@](C)(O)CC[C@@H]4[C@H]3CC[C@]12C [Compound I-118, (1R,2aS,2bR,4aR,6R,8aS,8bR,10aS)-1-(methoxymethyl)-6,10a-dimethylhexadecahydrocyclobuta[a]phenanthren-6-ol]",1000 to 10000
6,"C[C@@]1(O)CC[C@H]2[C@H](CC[C@@H]3[C@@H]2CC[C@]2(C)[C@@H](C(=O)Nc4ccccc4)C[C@@H]32)C1 [I-AA6, (1S,2aS,2bR,4aR,6R,8aS,8bR,10aS)-6-hydroxy-6,10a-dimethyl-N-phenylhexadecahydrocyclobuta[a]phenanthrene-1-carboxamide]",1000 to 10000
7,"C[C@@]1(O)CC[C@H]2[C@H](CC[C@@H]3[C@@H]2CC[C@]2(C)[C@H](C(=O)Nc4ccccc4)C[C@@H]32)C1 [I-AA6a, (1R,2aS,2bR,4aR,6R,8aS,8bR,10aS)-6-hydroxy-6,10a-dimethyl-N-phenylhexadecahydrocyclobuta[a]phenanthrene-1-carboxamide]",1000 to 10000
8,"CC(=O)[C@H]1C[C@H]2[C@@H]3CC[C@@H]4C[C@](C)(O)CC[C@@H]4[C@H]3CC[C@]12C [I-AA8, 1-((1S,2aS,2bR,4aR,6R,8aS,8bR,10aS)-6-hydroxy-6,10a-dimethylhexadecahydrocyclobuta[a]phenanthren-1-yl)ethan-1-one]",100 to 1000
9,"C[C@@]1(O)CC[C@H]2[C@H](CC[C@@H]3[C@@H]2CC[C@]2(C)[C@@H](C(=O)Cn4nccn4)C[C@@H]32)C1 [I-AA11, 1-((1S,2aS,2bR,4aR,6R,8aS,8bR,10aS)-6-hydroxy-6,10a-dimethylhexadecahydrocyclobuta[a]phenanthren-1-yl)-2-(2H-1,2,3-triazol-2-yl)ethan-1-one]",1000 to 10000
10,"C[C@@]1(O)CC[C@H]2[C@H](CC[C@@H]3[C@@H]2CC[C@]2(C)[C@@H](C(=O)Cn4ccnn4)C[C@@H]32)C1 [I-AA12, 1-((1S,2aS,2bR,4aR,6R,8aS,8bR,10aS)-6-hydroxy-6,10a-dimethylhexadecahydrocyclobuta[a]phenanthren-1-yl)-2-(1H-1,2,3-triazol-1-yl)ethan-1-one]",1000 to 10000
11,"C[C@@]1(O)CC[C@H]2[C@H](CC[C@@H]3[C@@H]2CC[C@]2(C)[C@@H](CO)C[C@@H]32)C1 [I-AB1, (1S,2aS,2bR,4aR,6R,8aS,8bR,10aS)-1-(hydroxymethyl)-6,10a-dimethylhexadecahydrocyclobutaialphenanthren-6-ol]",1000 to 10000
12,"C[C@@]1(O)CC[C@H]2[C@H](CC[C@@H]3[C@@H]2CC[C@]2(C)[C@H](CO)C[C@@H]32)C1 [I-AB1a, (1R,2aS,2bR,4aR,6R,8aS,8bR,10aS)-1-(hydroxymethyl)-6,10a-dimethylhexadecahydrocyclobuta[a]phenanthren-6-ol]",1000 to 10000
13,"COC[C@@]1(O)CC[C@H]2[C@H](CC[C@@H]3[C@@H]2CC[C@]2(C)[C@@H](C(=O)Nc4ccccc4)C[C@@H]32)C1 [I-AC8, (1S,2aS,2bR,4aR,6R,8aS,8bR,10aS)-6-hydroxy-6-(methoxymethyl)-10a-methyl-N-phenylhexadecahydrocyclobuta[a]phenanthrene-1-carboxamide]",1000 to 10000
14,"COC[C@@]1(O)CC[C@H]2[C@H](CC[C@@H]3[C@@H]2CC[C@]2(C)[C@H](C(=O)Nc4ccccc4)C[C@@H]32)C1 [I-AC8a, (1R,2aS,2bR,4aR,6R,8aS,8bR,10aS)-6-hydroxy-6-(methoxymethyl)-10a-methyl-N-phenylhexadecahydrocyclobuta[a]phenanthrene-1-carboxamide]",1000 to 10000
15,"COC[C@@]1(O)CC[C@H]2[C@H](CC[C@@H]3[C@@H]2CC[C@]2(C)[C@@H](C(=O)N4CCCC[C@@H]4C)C[C@@H]32)C1 [I-AC9, ((1S,2aS,2bR,4aR,6R,8aS,8bR,10aS)-6-hydroxy-6-(methoxymethyl)-10a-methylhexadecahydrocyclobutaialphenanthren-1-yl)((S)-2-methylpiperidin-1-yl)methanone]",1000 to 10000
16,"COC[C@@]1(O)CC[C@H]2[C@H](CC[C@@H]3[C@@H]2CC[C@]2(C)[C@@H](C(C)=O)C[C@@H]32)C1 [I-AC11, 1-((1S,2aS,2bR,4aR,6R,8aS,8bR,10aS)-6-hydroxy-6-(methoxymethyl)-10a-methylhexadecahydrocyclobuta[a]phenanthren-1-yl)ethan-1-one]",100 to 1000
17,"COC[C@@]1(O)CC[C@H]2[C@H](CC[C@@H]3[C@@H]2CC[C@]2(C)[C@@H](C(=O)Cn4cc(C#N)cn4)C[C@@H]32)C1 [I-AC14, 1-(2-((1S,2aS,2bR,4aR,6R,8aS,8bR,10aS)-6-hydroxy-6-(methoxymethyl)-10a-methylhexadecahydrocyclobuta[a]phenanthren-1-yl)-2-oxoethyl)-1H-pyrazole-4-carbonitrile]",100 to 1000
18,"CC(=O)[C@H]1C[C@H]2[C@@H]3CC[C@H]4C[C@](C)(O)CC[C@@H]4[C@H]3CC[C@]12C [I-AD8, 1-((1S,2aS,2bR,4aS,6R,8aS,8bR,10aS)-6-hydroxy-6,10a-dimethylhexadecahydrocyclobuta[a]phenanthren-1-yl)ethan-1-one]",1000 to 10000
19,"CC(=O)[C@@H]1C[C@H]2[C@@H]3CC[C@H]4C[C@](C)(O)CC[C@@H]4[C@H]3CC[C@]12C [I-AD8a, 1-((1R,2aS,2bR,4aS,6R,8aS,8bR,10aS)-6-hydroxy-6,10a-dimethylhexadecahydrocyclobuta[a]phenanthren-1-yl)ethan-1-one]",1000 to 10000
20,"C[C@@]1(O)CC[C@H]2[C@@H](CC[C@@H]3[C@@H]2CC[C@]2(C)[C@@H](C(=O)Cn4cc(C#N)cn4)C[C@@H]32)C1 [I-AD10, 1-(2-((1S,2aS,2bR,4aS,6R,8aS,8bR,10aS)-6-hydroxy-6,10a-dimethylhexadecahydrocyclobuta[a]phenanthren-1-yl)-2-oxoethyl)-1H-pyrazole-4-carbonitrile]",1000 to 10000

# Same assay, conditions: Table I-6; rat brain cortical membranes, 3 nM [35S]-TBPS, in the presence of 5 mM GABA
row,Compound,IC50 [nM]
1,"C[C@@]1(O)CC[C@H]2[C@H](CC[C@@H]3[C@@H]2CC[C@]2(C)[C@H](CO)CCCC[C@@H]32)C1 [I-BA5a, (2R,4aS,4bR,6aS,7R,11aS,11bR,13aR)-7-(hydroxymethyl)-2,6a-dimethyloctadecahydro-1H-cyclohepta[a]phenanthren-2-ol]",1000 to 10000
2,"C[C@@]1(O)CC[C@H]2[C@H](CC[C@@H]3[C@@H]2CC[C@]2(C)[C@@H](CO)CCCC[C@@H]32)C1 [I-BA5b, (2R,4aS,4bR,6aS,7S,11aS,11bR,13aR)-7-(hydroxymethyl)-2,6a-dimethyloctadecahydro-1H-cyclohepta[a]phenanthren-2-ol]",100 to 1000
3,"COC[C@H]1CCCC[C@H]2[C@@H]3CC[C@@H]4C[C@](C)(O)CC[C@@H]4[C@H]3CC[C@]12C [I-BA6, (2R,4aS,4bR,6aS,7S,11aS,11bR,13aR)-7-(methoxymethyl)-2,6a-dimethyloctadecahydro-1H-cyclohepta[a]phenanthren-2-ol]",100 to 1000
